Article PMC2905701, “Synthesis and Biological Evaluation of New CRH Analogues” (Bioinorganic Chemistry and Applications, 2010)
Non-standard residues stand in square brackets, D forms with d. No end group written: not given here. *: point of attachment. Aib = CC(C)(N)C(=O)O; Propyl = CCC*

Experiments:
CRH-1 receptor = biological target: T1, CRH-1 receptor (Homo sapiens, UniProt P34998); experiment: Binding affinity of h/r-CRH analogues to the CRH-1 receptor; conditions: averages from 3 experiments performed in duplicates
T1 sequence (P34998 24-415): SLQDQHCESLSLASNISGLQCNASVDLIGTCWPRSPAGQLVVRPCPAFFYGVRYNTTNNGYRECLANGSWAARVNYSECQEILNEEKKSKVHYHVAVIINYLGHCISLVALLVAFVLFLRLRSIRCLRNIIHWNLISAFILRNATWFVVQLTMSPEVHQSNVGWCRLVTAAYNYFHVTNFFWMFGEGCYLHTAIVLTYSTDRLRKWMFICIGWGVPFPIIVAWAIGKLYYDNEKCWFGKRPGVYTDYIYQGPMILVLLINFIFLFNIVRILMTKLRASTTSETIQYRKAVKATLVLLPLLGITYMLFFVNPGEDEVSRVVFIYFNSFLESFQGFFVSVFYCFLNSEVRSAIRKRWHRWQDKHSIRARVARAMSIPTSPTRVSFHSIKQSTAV

CRH-R1 = biological target: T2, CRH-R1 (Homo sapiens, UniProt P34998); experiment: Stimulation of cyclic AMP generation (CRE-luciferase activity) in LLC-PK1 cells cotransfected with CRH-R1 and CRE; assay type: cell-based; conditions: LLC-PK1 cells cotransfected with CRH-R1 and CRE cDNA; peptides 10^-6 to 10^-11 M, 7 hours at 37°C; luciferase read-out; maximum response compared to h/r-CRH; read-out: Biological activity: % Response max/CRH
T2 construct: expressed in transfected cells; host or cells: LLC-PK1 cells (electroporation)
T2 sequence (P34998 24-415): T1 sequence (P34998 24-415)
Method: The capacity of CRH and related peptide analogues to stimulate cyclic AMP generation was monitored in LLC-PK1 cells cotransfected with cDNA of CRH-R1 and CRE. For transfection the method of electroporation was applied and 40 millions of LLC-PK1 cells were prepared and washed in cytomix 1X transfection medium. The electroporation medium consisted of 1000 μL of cytomix 2X, 864 μL of sterilized water, 80 μL of ATP 50 mM, 3.2 mg of glutathion, 20 μg of CRH-R1 cDNA and 20 μg of CRE cDNA. 500 μL of the above solution were transferred in the electroporation device and after remaining for 10 minutes a standard growth medium was added (DMEM without phenol red with glutamine, antibiotics, and 10% FCS) to a total volume of 50 mL. The suspension was distributed in […] of 24 wells each, by adding 1 mL per well, and was allowed to pre-incubate for 24 hours. The growth medium was aspirated and replaced with fresh one followed by another preincubation for 24 hours. The cells were then challenged with graded concentrations (10^−6 to 10^−11 M) of the test peptides and incubated for 7 hours at 37°C. After that, the medium with the added peptides was removed, the cells were washed twice with PBS 1X, 100 μL of lysis buffer 1X per well were added, the plates were left at room temperature for 30 minutes and then stored at −80°C overnight. The luciferace activity was measured with the use of a luminometer after the addition of 50 μL of lysed cell preparation and 50 μL of bioluminescence medium per well in a 96 well plate luminometer.

[1] = times more potent than α-helical CRH; cited from earlier work
Excerpt: Introduction of D-amino acids leading to stabilization of β-turns, can provide analogues with increased potency but not all residues are susceptible to such an alteration, leading even to the opposite effect. However, the D-Phe^12 substitution has proven to be a favorable one especially combined with other advantageous modifications such as the replacement of Met at positions 21 and 38 with Nle.

Work on “SEEPPISLDLT[dF]H[Aib]LREVLEMARAEQLAQQAHSNRKLMEII-NH2 [Analogue 1, [D-Phe^12, Aib^14]CRH]” yielded an IC50 (CRH-1 receptor) of 226 nM and an Emax (CRH-R1) of 60%.
Work on “SEEPPISLDLT[dF]HLLREVLEMARAEQLAQQAHSNRKLC(Propyl)EII-NH2 [Analogue 4, [D-Phe^12, Cys(Pr)^38]CRH]” yielded an IC50 (CRH-1 receptor) of 35 nM and an Emax (CRH-R1) of 60%.
Work on “SEEPPISLDLT[dF]HL[Aib]REVLEMARAEQLAQQAHSNRKLMEII-NH2 [Analogue 2, [D-Phe^12, Aib^15]CRH]” yielded an IC50 (CRH-1 receptor) of 8.4 nM and an Emax (CRH-R1) of 60%.
In the case of [D-Phe^12]CRH, the “Potency relative to α-helical CRH” value [1] is given as “twice”.
For [D-Phe^12, Nle^21, 38]CRH21-41, the “Potency relative to α-helical CRH” value [1] is given as 15 times.
